Results on 3 compounds are retold here after US10434143B2, “Method of treating anemia caused by ribavirin treatment of hepatitis C using erythropoietin alpha” (priority 2001, dated 2019).

The test system of data set [1] is hepatitis C virus. The following applies: with interferon, licensing trials, cited from earlier work.
Data set [2] relates to hepatitis C virus. Kind of data set: Study of interferon alone and interferon plus ribavirin for hepatitis C in HIV-infected patients. The class given is in vivo, human. The following applies: interferon alone group, 3 months, 10 patients. The protocol: A study of interferon alone and interferon plus ribavirin for hepatitis C in HIV-infected patients was performed. Ten patients received interferon alone and 11 received the combination treatment of interferon alpha and ribavirin. Median liver biopsy fibrosis score for both groups was 2.1. In the interferon alone group, at 3 months, there was no change in HCV RNA, CD4 dropped from a median of 190 to 186 cells/ml and HIV RNA dropped from a median of 1500 copies per ml to less than 400. At the same time point, 3 months, in the combination group, the HCV RNA dropped from 3.2 million to less than about 600 copies/ml. […] The main adverse event was anemia which occurred in 5/21(23.8%). This was treated with erythropoietin 40,000 units weekly when the hemoglobin declined to 10 g/dl. […] This was the first report of this treatment in patients with HIV infection as well as hepatitis C.

Data set [3] is described as follows: Erythropoietin 40,000 units weekly for ribavirin-induced anemia. The class given is in vivo, human. The protocol:
A study of interferon alone and interferon plus ribavirin for hepatitis C in HIV-infected patients was performed. Ten patients received interferon alone and 11 received the combination treatment of interferon alpha and ribavirin. Median liver biopsy fibrosis score for both groups was 2.1. In the interferon alone group, at 3 months, there was no change in HCV RNA, CD4 dropped from a median of 190 to 186 cells/ml and HIV RNA dropped from a median of 1500 copies per ml to less than 400. At the same time point, 3 months, in the combination group, the HCV RNA dropped from 3.2 million to less than about 600 copies/ml. […] This was treated with erythropoietin 40,000 units weekly when the hemoglobin declined to 10 g/dl. […] This was the first report of this treatment in patients with HIV infection as well as hepatitis C. […] This was done in both HIV seronegative individuals and HIV seropositive individuals.

The format of data set [4] is in vivo, human. The procedure:
In an open-label, prospective pilot study, 56 subjects with chronic HCV infection were treated with both RBV and IFN-α. Eighteen subjects with anemia (hemoglobin 10 g/dl or […]) and reduced exercise tolerance following IFN-α/RBV initiation were treated with Epoetin alpha (up to 40,000 units per week subcutaneously). […] At the time of epoetin alpha initiation, the mean hemoglobin level declined 25.4% (to 10.6 g/dL) in the group receiving this treatment. […] Two thirds of subjects receiving epoetin alpha reported improved symptoms. […] Fifty-six chronically HCV-infected (≥90 days) subjects who were treated with IFN-α (3 million units TIW) and RBV (1000 mg/d for subjects <75 kg or 1200 mg/d for subjects ≥75 kg) were entered into an open-label, pilot, prospective study at several centers. […] RBV doses were adjusted by treating physicians as clinically indicated throughout the study. Following INF-α/RBV initiation, subjects with new-onset anemia (hemoglobin ≤10 g/dL or ≥2 g/dL decrease in hemoglobin) or a decrease in hemoglobin accompanied by decreased exercise tolerance (providers' impressions) received epoetin alpha (up to 40,000 units per week, subcutaneously). […] After initiation of epoetin alpha therapy, subjects were evaluated at a 2-week interval for 8 weeks and every 4 weeks thereafter for a maximum of 40 weeks. At each visit, laboratory safety parameters were obtained and, for most subjects, health-care providers recorded whether improvement had occurred in symptoms that typically occur as a side-effect of anemia or after therapy with IFN-α/RBV (e.g., flu-like symptoms, fatigue, dyspnea). […] In addition, clinical benefit of epoetin alpha therapy was evaluated by comparing the percent decline in hemoglobin levels from baseline to initiation of epoetin alpha with the percent recovery in these levels by the last visit. Fisher's exact test or the t-test was used to evaluate the significance of differences between groups with respect to demographic characteristics.

The format of data set [5] is in vivo, human. The procedure:
Once-weekly recombinant human erythropoietin (epoetin alpha) facilitates optimal ribavirin (RBV) dosing in Hepatitis C virus (HCV)-infected patients receiving Interferon-α-2b (IFN)/RBV combination therapy. RBV dose reduction or discontinuation has been the standard approach to treating hemoglobin (Hb) decreases resulting from IFN/RBV therapy in HCV-infected patients. […] An open-label, randomized, multicenter study was conducted to assess the efficacy and tolerability of once-weekly (QW) epoetin alpha therapy for hemoglobin decreases associated with IFN/RBV therapy and to evaluate the impact of epoetin alpha therapy on RBV dosing. HCV-infected patients who developed hemoglobin levels ≤12 g/dL during the first 24 weeks of combination IFN/RBV therapy (n=60) were randomly assigned to treatment with epoetin alpha (40000 units) subcutaneously once weekly for up to 36 weeks or standard of care (SOC). The primary and secondary efficacy end points were changes from baseline (at Week 16) in hemoglobin level and RBV dose, respectively.
This is another data set of the same source.

“And” between values parts separate entries of the source, which are not always exact repeats. Identical values can stand only once.

Take `NC(=O)c1ncn([C@@H]2O[C@H](CO)[C@@H](O)[C@H]2O)n1` [ribavirin]: in the data set on hepatitis C virus [1] (at least 10.6 mg/kg ribavirin), the “sustained virologic response rate” value was “over 40%”. Also, the “SVR (response) rate” value in the data set with hepatitis C virus [1] (less than 10.6 mg/kg ribavirin) is recorded as 28%.
Regarding IFN-α, the “change in HCV RNA” value with hepatitis C virus [2] is recorded as “no change”.
Turning to “epoetin alpha: recombinant human erythropoietin (r-HuEPO, Epoetin alpha)”, in data set [3] (begun when hemoglobin declined to 10 g/dl, after a median of 4 weeks, HCV/HIV patients), the “hemoglobin after erythropoietin treatment” value worked out at 12.7 g/dL. Also, in data set [3] (hemoglobin 11 gr/dl or less, HIV seronegative and seropositive), the quality of life result is “substantial increase in their quality of life”. In data set [4] (epoetin alpha up to 40,000 units per week s.c., N=18, mean follow-up 25.3 weeks), the “mean hemoglobin level at the last study visit” value is 12.7 g/dL and 12.7 ± 1.7 g/dL. For the same compound, in data set [4] (human, in vivo), the “Dyspnea (%)” value came out at 80.0%; the “Dyspnea, median duration (wks)” value is recorded as 6.6 wks; the “Fatigue (%)” value turned out to be 73.3%; the “Fatigue, median duration (wks)” value is 8.2 wks. In data set [4] (human, in vivo), the Flu-like symptoms was 46.7 and the “Flu-like symptoms, median duration (wks)” value was determined as 2.7 wks. Also, the “recovery in mean hemoglobin level after initiation of epoetin alpha” value in data set [4] (percent recovery by the last visit) is 65.5% and 65.5±56.3%. In addition, in data set [5] (P<0.05 vs SOC), the “mean hemoglobin level at last available assessment” value is on record as 13.8 g/dL. Besides, the “mean change in RBV dose at last available assessment” value in data set [5] (baseline 998 mg/day, P<0.05 vs SOC) is -25 mg/day. The “mean change from baseline hemoglobin level at last available assessment” value in data set [5] (epoetin alpha 40000 units s.c. once weekly, baseline 11.0 g/dL, P<0.05 vs SOC) is reported as “+2.7 g/dL”. Moreover, the tolerability result in data set [5] (human, in vivo) is “well tolerated”. The “patients treated with RBV doses greater than 10.6 mg/kg per day” value in data set [5] (last available assessment, P<0.01 vs SOC) is 77%.
